Laboratory results from patent EP2832347B1, “Method for identifying patchouli odorant materials” (Takasago International Corporation, priority 2013, dated 2015).
Values joined by “and” are separate entries in the source; they are usually repeats but may differ in a detail not shown here. Equal entries are not always repeated.

Experiment: Long-lasting analysis on scent strip (GC-MS with internal standard)
Format: physicochemical
Settings: for PA (GC-MS signal), sample 1-3 / Ratio PA/IS, sample 1-3: individual scent strips, listed as PA
Experimental: In one embodiment, the long-lasting analysis is carried out as follows: 50 µl of a 1 % solution of the identified candidate to be tested in alcohol, preferably ethanol, are applied on a scent strip, preferably a cellulosic scent strip, to be dosed. The strip is allowed to dry under ambient laboratory conditions, with normal room air movement, in particular no fan, heating or any mean or device to accelerate evaporation. After different times, each strip or at least the part of the scent strip including the area where the solution of the identified candidate to be tested was applied is extracted using 3 ml of alcohol, preferably ethanol, containing an internal standard, such as methyl decanoate. The extracts are then analyzed by gas chromatography and the result is normalized for the principal molecular ion of the identified candidate using the value for the internal standard.
50 µl of a 1 % solution of patchouli alcohol in ethanol was added by pipette to the tip to a series of different scent strips (SARL H. GRANGER-VEYRON, Privas, France). The strips were allowed to dry under ambient laboratory conditions.
After different times (t0, t0+1hour, t0+2hours, t0+4hours, t0+8hours) the tip of a strip where the 50 µl of the solution of the tested material had been applied was cut and put in a 30 ml bottle and extracted using 3 ml of ethanol, containing 50 µl of methyl decanoate as internal standard (10000 ppm solution in cyclohexane), added to each bottle. Care was taken to ensure the entire area around the point of application was included in the area that was cut and extracted. The content of the bottles was mixed for 30 min on a roller bed, and 2 ml vials were then filled with each sample.
Samples were triplicated, i.e. 3 scent strip tips were analysed for each time point.
In a first series of experiments, samples taken at t0, t0+1hour and t0+2hours were analyzed by GC-MS on a […] gas chromatography column (column BC-WAX (50m * 0.25mm * 0.15µm) which is a GC Sciences column supplied by Interchim, Montluçon, France).
In a second series of experiments, samples taken at t0, t0+4hours and t0+8hours were analyzed by GC-MS on a non-polar gas chromatography column (HP-5MS UI (30m * 0.25mm * 0.25µm) which is an Agilent column supplied by Chromoptic, Courtaboeuf, France).
In Tables 6-11, PA stands for patchouli alcohol and IS stands for the internal standard, i.e. methyl decanoate. When plotting the residual concentration of patchouli on the scent strip as a function of time, the mean ratio at t0 was normalized to 100 and then t0+1h, t0+2h, t0+4h and t0+8h were calculated; t0 being defined as 2 minutes after dosing the 50 µl of the solution of the tested material, which was applied towards the tip of the scent strip.
A "long-lasting" analysis of pogostone was performed as described in Example 5 with samples taken at t0, t0+1hour and t0+2hours.
In Tables 12-14 herebelow, POG stands for pogostone and IS stands for the internal standard, i.e. methyl decanoate. The mean ratio at t0 was normalized as described in Example 5.

[1] = t0, second series, HP-5MS UI column

Structure (SMILES): C[C@H]1CC[C@@]2(O)C(C)(C)[C@@H]3CC[C@@]2(C)[C@H]1C3 [Patchouli alcohol]
- retained initial concentration (after 1 hour on scent strip): at least 10%
- PA (GC-MS signal), mean value (t0+1h, BC-WAX column): 2.09E+06
- Ratio PA/IS, mean value (t0+1h, BC-WAX column): 6.70E-01
- PA (GC-MS signal), sample 1-3 (t0+1h, BC-WAX column): 2.10E+06 and 2.12E+06 and 2.05E+06
- Ratio PA/IS, sample 1-3 (t0+1h, BC-WAX column): 6.50E-01 and 7.16E-01 and 6.43E-01
- PA (GC-MS signal), mean value (t0+2h, BC-WAX column): 1.35E+06
- Ratio PA/IS, mean value (t0+2h, BC-WAX column): 4.29E-01
- PA (GC-MS signal), sample 1-3 (t0+2h, BC-WAX column): 1.38E+06 and 1.32E+06 and 1.35E+06
- Ratio PA/IS, sample 1-3 (t0+2h, BC-WAX column): 3.74E-01 and 4.52E-01 and 4.62E-01
- PA (GC-MS signal), mean value (t0+4h, HP-5MS UI column): 3.26E+06
- Ratio PA/IS, mean value (t0+4h, HP-5MS UI column): 4.15E-01
- PA (GC-MS signal), sample 1-3 (t0+4h, HP-5MS UI column): 3.83E+06 and 2.94E+06 and 3.00E+06
- Ratio PA/IS, sample 1-3 (t0+4h, HP-5MS UI column): 4.67E-01 and 3.89E-01 (2×)
- PA (GC-MS signal), mean value (t0+8h, HP-5MS UI column): 1.58E+06
- Ratio PA/IS, mean value (t0+8h, HP-5MS UI column): 1.86E-01
- PA (GC-MS signal), sample 1-3 (t0+8h, HP-5MS UI column): 2.02E+06 and 1.37E+06 and 1.35E+06
- Ratio PA/IS, sample 1-3 (t0+8h, HP-5MS UI column): 2.16E-01 and 1.77E-01 and 1.65E-01
- PA (GC-MS signal), mean value (t0, BC-WAX column): 2.93E+06
- Ratio PA/IS, mean value (t0, BC-WAX column): 9.67E-01
- PA (GC-MS signal), sample 1-3 (t0, BC-WAX column): 2.98E+06 and 2.87E+06 and 2.94E+06
- Ratio PA/IS, sample 1-3 (t0, BC-WAX column): 9.42E-01 and 9.89E-01 and 9.69E-01
- PA (GC-MS signal), mean value [1]: 9.18E+06
- Ratio PA/IS, mean value [1]: 1.24E+00
- PA (GC-MS signal), sample 1-3 [1]: 9.37E+06 and 9.23E+06 and 8.94E+06
- Ratio PA/IS, sample 1-3 [1]: 1.25E+00 and 1.22E+00 and 1.26E+00
